These are literature values, as cited in patent US20180014537A1, “NOVEL COMPOSITIONS AND METHODS FOR CONTROLLING SOIL BORNE PATHOGENS OF AGRICULTURAL CROPS” (ADJUVANTS UNLIMITED LLC, priority 2015, published 2018).

For series [1] the following is noted: in vivo.
The subject of a further series is Meloidogyne incognita. To be noted: 3.2 uL per liter as a soil drench.
The conditions of series [2]: soil drench.
The test system of the next series is tomato seedlings. To be noted: at 24 hours, equivalent concentrations.

Consider `CCCCCCCCC(=O)OC` [PAME, pelargonic acid methyl ester], for which the “less phytotoxic than the parent pelargonic acid” value in series [1] is 40 fold. For the same compound, the “control of Meloidogyne incognita” value in the series on Meloidogyne incognita was “good control”. For the same compound, the “concentration above which significant phytotoxicity occurred” value in series [2] was “exceeded 4.8 uL per liter”. In addition, the mortality of seedling in the series on tomato seedlings is listed as 100%.
For the compound `CCCCCC[C@@H](O)C/C=C\CCCCCCCC(=O)OC` [ricinoleic acid methyl ester], in the series with tomato seedlings, the mortality of seedling was 0%.
